Molecules are shown by their SMILES.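 Method: 48-hour compound exposure of cells in 96-well plates, five concentrations, linear interpolation of endpoints. Here, GI50 denotes the concentration required for 50% inhibition of growth. TGI marks complete inhibition of growth.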

Among the test systems are CAKI-1 renal; HT29 colon; LOX IMVI melanoma; MDA-MB-435; OVCAR-5 ovarian; RXF 393 renal; SK-MEL-2 melanoma; SNB-19 CNS; UACC-257 melanoma; SK-MEL-5 melanoma.
What all share (assay): NCI anticancer screen, dose series, 48 h

Take `C/C(=N\NC(=S)N1CCCCCC1)c1cccc2cccnc12`: the TGI was 2.42 µM in the experiment on CAKI-1 renal; 19.1 µM in the experiment on HT29 colon; 27.1 µM in the experiment on LOX IMVI melanoma; above 100 µM with MDA-MB-435; above 100 µM in the experiment with OVCAR-5 ovarian; above 100 µM with RXF 393 renal. The TGI in the experiment on SK-MEL-2 melanoma was above 100 µM; with SNB-19 CNS, above 44.2 µM; with UACC-257 melanoma, above 31.1 µM.

On to `Cl.Fc1c[c-]c(-c2ccccn2)c(F)c1.[Pt].c1ccc([PH+](C[PH+](c2ccccc2)c2ccccc2)c2ccccc2)cc1`, for which the GI50 with CAKI-1 renal was 0.266 µM; in the experiment on MDA-MB-435 it was 0.233 µM; in the experiment on OVCAR-5 ovarian, 0.324 µM; in the experiment on RXF 393 renal, 0.251 µM; in the experiment on SNB-19 CNS, 0.343 µM; with UACC-257 melanoma, 0.269 µM. In addition, the TGI came to 0.839 µM with CAKI-1 renal; 0.574 µM in the experiment on MDA-MB-435; 1.18 µM in the experiment on OVCAR-5 ovarian; 0.741 µM in the experiment with RXF 393 renal; 1.32 µM with SNB-19 CNS; 0.829 µM in the experiment with UACC-257 melanoma.

Turning to `COc1ccc(-c2c3c(nc4n[nH]c(-c5ccc(Cl)cc5)c24)-c2ccccc2C(=O)C3=O)cc1`, the GI50 is 1.62 µM in the experiment with CAKI-1 renal; 1.87 µM with HT29 colon; 1.54 µM in the experiment on MDA-MB-435; 2.15 µM in the experiment with OVCAR-5 ovarian; 1.5 µM in the experiment on RXF 393 renal; 1.56 µM in the experiment with SK-MEL-2 melanoma. The GI50 with SK-MEL-5 melanoma was 1.51 µM; in the experiment on SNB-19 CNS, 1.83 µM; with UACC-257 melanoma it was 1.57 µM. Moreover, the TGI in the experiment on CAKI-1 renal stood at 4.38 µM; in the experiment on HT29 colon it was 3.4 µM; in the experiment on MDA-MB-435, 3.43 µM; in the experiment with OVCAR-5 ovarian, 4.79 µM; in the experiment with RXF 393 renal, 3.1 µM; in the experiment on SK-MEL-2 melanoma it was 3.3 µM. For the same molecule, the TGI in the experiment on SK-MEL-5 melanoma is 2.84 µM; in the experiment on SNB-19 CNS, 3.7 µM; in the experiment on UACC-257 melanoma, 2.95 µM.

For the molecule `CN(CCC(=O)/C(=C\c1ccccc1)c1ccc(Cl)cc1)Cc1ccccc1`, the GI50 in the experiment with CAKI-1 renal was 3.54 µM; with HT29 colon, 2.28 µM; in the experiment with MDA-MB-435, 1.83 µM; in the experiment on OVCAR-5 ovarian it was 3.53 µM; in the experiment on RXF 393 renal it was 1.86 µM; in the experiment with SK-MEL-2 melanoma, 2.6 µM. Further, the GI50 with SK-MEL-5 melanoma was 3.44 µM; in the experiment with SNB-19 CNS it was 3.92 µM; with UACC-257 melanoma, 10.7 µM. Besides, the TGI with CAKI-1 renal turned out to be 12.5 µM; in the experiment on HT29 colon it was 5.2 µM; in the experiment on MDA-MB-435 it was 4.07 µM; in the experiment with OVCAR-5 ovarian it was 10.4 µM; with RXF 393 renal it was 3.69 µM; with SK-MEL-2 melanoma, 7.23 µM. For the same molecule, the TGI in the experiment on SK-MEL-5 melanoma was 13.1 µM; with SNB-19 CNS, 19.1 µM; in the experiment on UACC-257 melanoma, 24.2 µM.

As for `Cc1cc(Cl)ccc1C(=O)c1ccc2ccccc2c1C(=O)O`, the TGI with CAKI-1 renal, with HT29 colon, in the experiment with MDA-MB-435, with OVCAR-5 ovarian, in the experiment on RXF 393 renal and in the experiment with SK-MEL-2 melanoma was above 100 µM throughout. In addition, the TGI with SK-MEL-5 melanoma, in the experiment on SNB-19 CNS and in the experiment on UACC-257 melanoma was above 100 µM in each case.

As for `Cc1nc2ccccc2nc1N=Nc1ccccc1`, the GI50 in the experiment with HT29 colon is 0.193 µM; in the experiment on LOX IMVI melanoma, 23.3 µM; in the experiment with MDA-MB-435, 18.3 µM; in the experiment on OVCAR-5 ovarian, 75.7 µM; in the experiment with RXF 393 renal, 23.4 µM; in the experiment with SK-MEL-2 melanoma, 24 µM. The GI50 is 16 µM in the experiment on SK-MEL-5 melanoma, 50.3 µM in the experiment with SNB-19 CNS and 25.2 µM in the experiment with UACC-257 melanoma. For the same molecule, the TGI is 15.1 µM with HT29 colon; above 100 µM with LOX IMVI melanoma; 48.8 µM in the experiment with MDA-MB-435; above 100 µM in the experiment on OVCAR-5 ovarian; above 100 µM with RXF 393 renal; 61.3 µM with SK-MEL-2 melanoma. The TGI in the experiment on SK-MEL-5 melanoma was 30.1 µM; with SNB-19 CNS, above 100 µM; in the experiment with UACC-257 melanoma, 73.4 µM.

As for `Nc1nc(N)c2nc3c(nc2n1)CCCCCCCCCC3`, the GI50 with CAKI-1 renal was 3.36 µM; in the experiment with LOX IMVI melanoma it was 0.733 µM; with MDA-MB-435, 0.577 µM; with OVCAR-5 ovarian, 1.75 µM; in the experiment with RXF 393 renal, 4.12 µM; in the experiment with SK-MEL-5 melanoma it was 0.652 µM. In addition, the GI50 is 6.43 µM with SNB-19 CNS and 2.4 µM in the experiment with UACC-257 melanoma. The TGI in the experiment on CAKI-1 renal, in the experiment with LOX IMVI melanoma, in the experiment with MDA-MB-435, in the experiment with OVCAR-5 ovarian, in the experiment with RXF 393 renal and in the experiment with SK-MEL-5 melanoma was above 100 µM throughout. Further, the TGI with SNB-19 CNS and in the experiment on UACC-257 melanoma was above 100 µM in each case.

Consider `COC1CC(N)C(O)C(C)O1` (stereo not given), for which the TGI in the experiment with CAKI-1 renal, in the experiment on HT29 colon, in the experiment with LOX IMVI melanoma, in the experiment on MDA-MB-435, in the experiment with OVCAR-5 ovarian and in the experiment on RXF 393 renal was above 100 µM each time. Further, the TGI in the experiment with SK-MEL-5 melanoma, with SNB-19 CNS and in the experiment with UACC-257 melanoma was above 100 µM in each case.

With `CCOc1ccc2c(c1)c(CC(=O)O)cn2C`, the TGI in the experiment with CAKI-1 renal, with HT29 colon, with LOX IMVI melanoma, with MDA-MB-435, in the experiment on RXF 393 renal and in the experiment on SK-MEL-2 melanoma was above 100 µM each time. Moreover, the TGI with SNB-19 CNS and in the experiment with UACC-257 melanoma was above 100 µM throughout.

Consider `COc1ccc(-c2csc(NC(=O)CN3CCN(c4cc5c(cc4F)c(=O)c(C(=O)O)cn5C4CC4)CC3)n2)cc1`, for which the GI50 was 3.57 µM in the experiment on CAKI-1 renal; 3.49 µM in the experiment on HT29 colon; 3.39 µM in the experiment on MDA-MB-435; 4.97 µM with RXF 393 renal; 2.58 µM in the experiment with SK-MEL-2 melanoma; 4.1 µM with SNB-19 CNS. Besides, the TGI in the experiment on CAKI-1 renal was above 100 µM; with HT29 colon it was above 100 µM; in the experiment on MDA-MB-435 it was above 100 µM; in the experiment with RXF 393 renal, 27.7 µM; with SK-MEL-2 melanoma it was 8.28 µM; in the experiment with SNB-19 CNS it was above 100 µM.

For `COC(=O)C(C(=O)OC)C(Br)C(Br)C(Br)c1ccccc1` (stereo not given), the GI50 is 4.97 µM in the experiment on CAKI-1 renal; 5.68 µM with HT29 colon; 1.5 µM with LOX IMVI melanoma; 5.66 µM in the experiment on MDA-MB-435; 19.9 µM with OVCAR-5 ovarian; 4.17 µM in the experiment on RXF 393 renal. Besides, the GI50 was 5.92 µM in the experiment with SK-MEL-2 melanoma and 2.34 µM in the experiment on UACC-257 melanoma. The TGI in the experiment with CAKI-1 renal was 17.7 µM; in the experiment on HT29 colon, 21.8 µM; in the experiment on LOX IMVI melanoma, 3.34 µM; in the experiment on MDA-MB-435, 20.7 µM; in the experiment with OVCAR-5 ovarian, 37.5 µM; with RXF 393 renal, 15.9 µM. Besides, the TGI is 19.2 µM with SK-MEL-2 melanoma and 11 µM with UACC-257 melanoma.

The values above are taken from PubChem BioAssay (NCI).
